Assay results as given in patent publication US12527872B2, “PEGylated ICD inducer-IDO inhibitor nanoconjugate, and preparation method and use thereof” (SHANDONG UNIVERSITY, priority 2019, dated 2026).

Key:
4T1 cells [1] = assay: In vitro anti-tumor viability test (CCK-8); type: cell-based; conditions: different concentrations, 48 h, CCK-8, absorbance at 450 nm; FIG. 10
Protocol: 4T1 cells were incubated in a 96-well plate (8000 cells/well) with a volume of 100 μL per well. After the incubation, the 96-well plate was placed in an incubator to culture at 37° C. under 5% CO2 overnight. 100 μL of free OXA and diMT-OXA(IV)-PEG 2000 nanoconjugate (in different concentrations) were added. After culture in the incubator at 37° C. under 5% CO2 for 48 h, 10 μL of CCK-8 solution was added into each well and then cultured in the incubator at 37° C. under 5% CO2 for 2 h. The absorbance was measured at 450 nm by an ELISA reader, and the cell viability was calculated.

4T1 cells [2] = assay: In vivo inhibition of breast tumor growth (4T1 breast cancer model); conditions: BALB/c mice injected with 4T1 cells, treated every three days; compared with saline control; FIG. 8
Protocol: To evaluate the efficacy of diMT-OXA(IV)-PEG 2000 nanoconjugate in inhibiting tumor growth in vivo, a model of animal with breast cancer was established. 4T1 cells were injected intravenously in BALB/c mice. 4T1 cells spontaneously generate tumors in BALB/c mice, and the characteristics of these tumors are very similar to breast cancer in humans. The BALB/c mice injected with 4T1 cells were treated every three days with free OXA, free 1-MT, free 1-MT plus OXA, and diMT-OXA(IV)-PEG 2000 nanoconjugate, and were treated with saline as control. After the course of treatment, tumor masses were collected from the experimental mice to measure tumor volume to assess general anti-tumor effects (see […]). It can be learned from FIG. 8 that the tumor volume is reduced in mice treated with free OXA, free 1-MT, and free 1-MT plus OXA, and the tumor volume is reduced in mice treated with diMT-OXA(IV)-PEG 2000 nanoconjugate to more than about 50% of that in mice treated with saline as control.

Compound	inhibitory effect on the proliferation of 4T1 cells (cell viability) (4T1 cells [1])	tumor volume (4T1 cells [2])
O=C1[O][Pt]2([NH][C@@H]3CCCC[C@H]3[NH]2)[O]C1=O [free OXA, oxaliplatin]	good inhibitory effect	reduced
Cn1cc(C[C@@H](N)C(=O)O)c2ccccc21 [free 1-MT, 1-methyl-D-tryptophan]	–	reduced
